From patent US10632181B2, “Composition, containing RGD motif-containing peptide or fragment thereof, for treating burns and glaucoma, alleviating skin wrinkles, and promoting hair growth” (HUONS CO., LTD., priority 2014, dated 2020)
Positions of bridges follow the written chain, without caps; N, C: chain ends. No end group written: not given here.

Key:
[1] = system: glaucoma animal model having microbead-induced elevated intraocular pressure; assay: Glaucoma test: intraocular pressure; type: in vivo, mouse; conditions: for intraocular pressure change: 20 ug/ml applied to eye once daily
Description: (§1) For control drug, Taflotan eye drops (Santen Pharmaceutical Co., Ltd.) were used, and for test drug, Taflotan eye drops+HU024 (SEQ ID NO:2) (sample 1), HU024 (SEQ ID NO:2) (sample 2), HU025 (SEQ ID NO:3) (sample 3), HU026 (SEQ ID NO:4) (sample 4), and HU027 (SEQ ID NO:5) (sample 5) were used, and testing was performed on glaucoma animal model having microbead-induced elevated intraocular pressure. In experimental animal model, Rompun solution for injection and zoletil were mixed and used to put the experimental animal under anesthesia, topical anesthetic Alcaine was applied to eye, 1×106 microbead/mL 1 μL was injected into anterior chamber using micro glass needle to induce an increase in intraocular pressure for 2 weeks (IOVS 2011 Vol. 52 36-).
(§2) The control drug and 5 samples were provided to the experimental animal having the elevated intraocular pressure for 2 weeks, 5 samples were applied to eye once daily, comparative verification of efficacy was performed, and intraocular pressure reduction and optic nerve cell in the retina was observed through administration for 4 weeks.
(§3) The intraocular pressure was measured using a contact-type intraocular pressure meter Tono lab's tonometer TV02 model. […] In 5-7 days after fluorescent probe injection, the eye was enucleated and fixed in 4% paraformaldehyde at room temperature for 4 hours. The retina was separated from choroid of the fixed eye and mounted on a slide. In each experimental group slide, optic nerve cell expressing fluorescence was detected using fluorescence microscope, images were taken at a magnification of ×40 and ×200, and data was collected.

[2] = system: optic nerve cell in the retina of glaucoma animal model; assay: Glaucoma test: optic nerve cell in the retina (Fluorogold); type: in vivo, mouse; conditions: applied to eye once daily, Fluorogold labelling
Description: as §1, §2, §3

[3] = Hair growth test: body weight; type: in vivo; conditions: skin
Description: (§4) This test was conducted to assess the influence on hair growth of C57BL/6 mouse when 4 types of test substances, HU024 (SEQ ID NO:2), HU025 (SEQ ID NO:3), HU026 (SEQ ID NO:4), and HU027 (SEQ ID NO:5), were applied to the skin for 14 days.
(§5) The group design was set to negative control (sterile water for injection G1), test substance HU024 (SEQ ID NO:2) 20 ug/head/day (G2), test substance HU024 (SEQ ID NO:2) 60 ug/head/day (G3), test substance HU025 (SEQ ID NO:3) 20 ug/head/day (G4), test substance HU025 (SEQ ID NO:3) 60 ug/head/day (G5), test substance HU026 (SEQ ID NO:4) 20 ug/head/day (G6), test substance HU026 (SEQ ID NO:4) 60 ug/head/day (G7), test substance HU027 (SEQ ID NO:5) 20 ug/head/day (G8), test substance HU027 (SEQ ID NO:5) 60 ug/head/day (G9) and positive control minoxyl 3% (G10) administered groups. Each group had 10 animals.
(§6) After the animal was put under anesthesia using zoletil (1 mL/kg, i.p), the back of the animal was primarily shaved using a depilator, and Veet depilatory was evenly applied on the back. After about 5 minutes, the applied site was cleaned up using gauze moistened with sterile water for injection. Only animal whose shaved back was scarlet in color was used for group separation. The test substance was applied to the same site daily once per day, 7 times per week for 14 days, and the test substance was evenly applied to the shaved site (on the back) by rubbing with a glass rod about 10 times.
The test item was measurements of dead animal, general syndrome, weight change, hair growing area and hair weight, and comparison with negative control was conducted.
(§7) The measurement results were analyzed using SPSS (ver. 10.1K), Duncan t-test for weight changes was conducted through one-way analysis of variance, hair weight was compared between groups using Student's t-test, and hair growing area was compared between groups through nonparametric multiple comparison procedures Whitney-Mann methods. P<0.05 was determined to be statistically significant.

[4] = system: hair growth of C57BL/6 mouse; assay: Hair growth test: hair growing area; type: in vivo
Description: as §4, §5, §6
The hair growing area (%) relative to the test substance-applied area was measured and determined, and Image analyzer program (Image Pro Plus ver. 6.3, Cybermetics, USA) was used to measure. […] Imaging was performed together with the measurements on the date when the hair area was measured. On the next day after the end of application, the animals were killed by CO2 gas, and hair on the hair growing area was removed by a depilator and hair weight was measured.
as §7

[5] = system: hair growth of C57BL/6 mouse; assay: Hair growth test: hair weight; type: in vivo
Description: as §4, §5, §6
The hair growing area (%) relative to the test substance-applied area was measured and determined, and Image analyzer program (Image Pro Plus ver. 6.3, Cybermetics, USA) was used to measure. It was measured on the 1st, 3rd, 7th, 10th and 14th days after test substance administration. Imaging was performed together with the measurements on the date when the hair area was measured. On the next day after the end of application, the animals were killed by CO2 gas, and hair on the hair growing area was removed by a depilator and hair weight was measured.
as §7

Row | Compound | optic nerve cell death / protection [2] | BODY WEIGHTS ([3]; 20 ug/head/day, Day 1) | BODY WEIGHTS ([3]; 20 ug/head/day, Day 7) | BODY WEIGHTS ([3]; 20 ug/head/day, Day 11) | BODY WEIGHTS ([3]; 60 ug/head/day, Day 1) | BODY WEIGHTS ([3]; 60 ug/head/day, Day 7) | BODY WEIGHTS ([3]; 60 ug/head/day, Day 11) | HAIR AREA (%) ([4]; 20 ug/head/day, Day 1) | HAIR AREA (%) ([4]; 20 ug/head/day, Day 4) | HAIR AREA (%) ([4]; 20 ug/head/day, Day 7) | HAIR AREA (%) ([4]; 20 ug/head/day, Day 10) | HAIR AREA (%) ([4]; 20 ug/head/day, Day 14) | HAIR AREA (%) ([4]; 60 ug/head/day, Day 1) | HAIR AREA (%) ([4]; 60 ug/head/day, Day 4) | HAIR AREA (%) ([4]; 60 ug/head/day, Day 7) | HAIR AREA (%) ([4]; 60 ug/head/day, Day 10) | HAIR AREA (%) ([4]; 60 ug/head/day, Day 14) | HAIR WEIGHTS ([5]; 20 ug/head/day for 14 days) | HAIR WEIGHTS ([5]; 60 ug/head/day for 14 days) | intraocular pressure change [1] | further results
1 | CC(C)OC(=O)CCC/C=C\C[C@@H]1[C@@H](/C=C/C(F)(F)COc2ccccc2)[C@H](O)C[C@@H]1O [Tafluprost, reference compound] | protection from optic nerve cell death was observed |  |  |  |  |  |  |  |  |  |  |  |  |  |  |  |  |  |  |  | intraocular pressure numerical value ([1]; positive control, eye drops): 15.9±2.9 mmHg; intraocular pressure reduction as compared to negative control ([1]; positive control, eye drops): 20.89%
2 | HU026 (TRGDCDLPEFCP; disulfide 5-11; listed as Homo sapiens) | protection from optic nerve cell death was observed | 21.20 ± 0.77 g | 22.48 ± 1.12 g | 23.75 ± 1.27 g | 21.58 ± 0.61 g | 22.80 ± 1.03 g | 23.83 ± 1.30 g | 0.10 ± 0.05% | 0.13 ± 0.07% | 0.43 ± 0.30% | 7.67 ± 4.54% | 56.64 ± 12.26% | 0.07 ± 0.04% | 0.22 ± 0.13% | 0.69 ± 0.37% | 13.54 ± 4.75% | 65.41 ± 11.62% | 0.021 ± 0.008 g | 0.026 ± 0.007 g | the intraocular pressure did not reduce | 
3 | NH2—RPTRGDCDLPEFCPG—COOH (H-RPTRGDCDLPEFCPG-OH; cysteine pairing not given here; listed as Homo sapiens) [HU025] | protection from optic nerve cell death was observed | 21.20 ± 1.23 g | 22.63 ± 1.01 g | 23.77 ± 1.17 g | 21.53 ± 0.63 g | 23.20 ± 0.83 g | 24.23 ± 1.02 g | 0.04 ± 0.03% | 0.06 ± 0.05% | 0.47 ± 0.22% | 2.04 ± 0.66% | 39.88 ± 8.74% | 0.04 ± 0.04% | 0.42 ± 0.33% | 0.72 ± 0.51% | 19.61 ± 9.01 % | 75.45 ± 6.65 % | 0.005 ± 0.002 g | 0.021 ± 0.007 g | had an effect in reducing the intraocular pressure | intraocular pressure change ([1]; listed as sample 3): A reduction in intraocular pressure was observed
4 | NH2—RPTRGDCDL—COOH (H-RPTRGDCDL-OH; listed as Homo sapiens) [HU027] |  | 21.71 ± 0.59 g | 23.27 ± 0.71 g | 23.98 ± 0.79 g | 21.77 ± 0.87 g | 23.07 ± 1.13 g | 23.97 ± 1.14 g | 0.13 ± 0.13% | 0.32 ± 0.14% | 0.44 ± 0.17% | 8.81 ± 3.57% | 56.95 ± 9.83% | 0.17 ± 0.11% | 0.33 ± 0.22% | 0.50 ± 0.26% | 8.20 ± 3.43% | 61.95 ± 11.30% | 0.010 ± 0.003 g | 0.016 ± 0.005 g |  | 
